Source: ChEMBL document CHEMBL5528049, “Discovery of (4-Pyrazolyl)-2-aminopyrimidines as Potent and Selective Inhibitors of Cyclin-Dependent Kinase 2” (J Med Chem, 2024)
pIC50: −log10 of the molar value. ≈ marks a conversion by molar mass, not a printed value.

Experiments:
[1] = biological target: Cyclin-dependent kinase 2/cyclin E1 (Homo sapiens, UniProt P24941); assay: Inhibition of N-terminal GST-tagged full-length human CDK2(1 to 298 residues) /FLAG-tagged human Cyclin E1 (1 to 410 residues) expressed in baculovirus-infected Sf21 cells incubated for 60 mins in presence of ATP by HTRF assay
[2] = biological target: Cyclin-dependent kinase 1/cyclin B1 (Homo sapiens, UniProt P06493); assay: Inhibition of N-terminal GST-tagged full length human CDK1 (1 to 297 residues)/human Cyclin B1 (1 to 433 residues) expressed in baculovirus infected Sf21 cells incubated for 60 mins in presence of ATP by HTRF assay
[3] = species on record: Homo sapiens; assay: Selectivity index, ratio of IC50 for inhibition of N-terminal GST-tagged full length human CDK1 (1 to 297 residues)/human Cyclin B1 (1 to 433 residues) expressed in baculovirus infected Sf21 cells to IC50 for inhibition of N-terminal GST-tagged full-length human CDK2(1 to 298 residues) /FLAG-tagged human Cyclin E1 (1 to 410 residues) expressed in baculovirus-infected Sf21 cells
[4] = biological target: Cyclin-dependent kinase 4/cyclin D1 (Homo sapiens, UniProt P11802); assay: Inhibition of N-terminal GST-tagged human CDK4 (4 to 303 residues)/N-terminal GST-tagged human Cyclin D1 (4 to 295 residues) expressed in Sf9 insect cells incubated for 60 mins in presence of ATP by HTRF assay
[5] = biological target: CDK6/cyclin D3 (Homo sapiens, UniProt Q00534); assay: Inhibition of N-terminal GST-tagged human CDK6 (1 to 326 residues)/N-terminal 6-His fused human Cyclin D3 (1 to 292 residues) expressed in Sf9 insect cells incubated for 60 mins by HTRF assay
[6] = Solubility of compound in SGF by HPLC analysis
[7] = Intrinsic clearance in human liver microsomes at 1 uM measured upto 30 mins by LC/MS analysis; type: ADME, Microsome; conditions: read-out: CLH (converted)
[8] = biological target: Cyclin-dependent kinase 2 (Homo sapiens, UniProt P24941); assay: Inhibition of CDK2 in human whole blood spiked with CCNE1-amplified human COV318 cells assessed as reduction in retinoblastoma protein phosphorylation at S780 residue incubated overnight by HTRF microplate reader; type: cell-based
[9] = Apparent permeability from apical to basolateral side in human Caco-2 cells at 50 uM incubated for 120 mins by LCMS analysis
[10] = Protein binding in human plasma assessed as free fraction incubated for 2 hrs by LC-MS/MS analysis; type: ADME, cell-free
[11] = AUC in Sprague-Dawley rat at 3 mg/kg, po administered as cassette dose and measured upto 24 hrs by LC-MS/MS analysis; type: ADME, organism-based; conditions: in vivo
[12] = Cmax in Sprague-Dawley rat at 3 mg/kg, po administered as cassette dose and measured upto 24 hrs by LC-MS/MS analysis; type: ADME, organism-based; conditions: in vivo
[13] = Oral bioavailability in Sprague-Dawley rat at 3 mg/kg administered as cassette dose and measured upto 24 hrs by LC-MS/MS analysis; type: ADME, organism-based; conditions: in vivo
[14] = Hepatic blood flow in cynomolgus monkey at 0.5 mg/kg, iv administered as cassette dose and measured upto 24 hrs by LC-MS/MS analysis; type: ADME, organism-based, Macaca fascicularis; conditions: in vivo
[15] = Half-life in cynomolgus monkey at 0.5 mg/kg, iv administered as cassette dose and measured upto 24 hrs by LC-MS/MS analysis; type: ADME, organism-based, Macaca fascicularis; conditions: in vivo
[16] = Volume of distribution at steady state in cynomolgus monkey at 0.5 mg/kg, iv administered as cassette dose and measured upto 24 hrs by LC-MS/MS analysis; type: ADME, organism-based, Macaca fascicularis; conditions: in vivo, read-out: Vdss
[17] = Hepatic blood flow in Sprague-Dawley rat at 0.43 mg/kg, iv administered as cassette dose and measured upto 24 hrs by LC-MS/MS analysis; type: ADME, organism-based; conditions: in vivo
[18] = Half-life in Sprague-Dawley rat at 0.43 mg/kg, iv administered as cassette dose and measured upto 24 hrs by LC-MS/MS analysis; type: ADME, organism-based; conditions: in vivo
[19] = Volume of distribution at steady state in Sprague-Dawley rat at 0.43 mg/kg, iv administered as cassette dose and measured upto 24 hrs by LC-MS/MS analysis; type: ADME, organism-based; conditions: in vivo, read-out: Vdss
[20] = AUC in cynomolgus monkey at 3 mg/kg, po administered as cassette dose and measured upto 24 hrs by LC-MS/MS analysis; type: ADME, organism-based, Macaca fascicularis; conditions: in vivo
[21] = Cmax in cynomolgus monkey at 3 mg/kg, po administered as cassette dose and measured upto 24 hrs by LC-MS/MS analysis; type: ADME, organism-based, Macaca fascicularis; conditions: in vivo
[22] = Oral bioavailability in cynomolgus monkey at 3 mg/kg administered as cassette dose and measured upto 24 hrs by LC-MS/MS analysis; type: ADME, organism-based, Macaca fascicularis; conditions: in vivo
[23] = biological target: Tyrosine-protein kinase JAK2 (Homo sapiens, UniProt O60674); assay: Inhibition of JAK2 (unknown origin) incubated for 90 mins in presence of ATP by fluorescence microplate reader

SMILES	pIC50 [1]	pIC50 [2]	pIC50 [4]	pIC50 [5]	solubility [6]	CLint scaled at 1 µM [7]	pIC50 [8]	Papp A→B at 2 h, 50 µM [9]	Ratio IC50 [3]	other results
CS(=O)(=O)N1CCC(Nc2ncc(C(F)(F)F)c(-c3cnn(C4CCCCC4)c3)n2)CC1	8.70	6.59	8.49	8.00	11 µg/mL (≈ 23.3 µM)	18.3 mL/min/kg	5.30		130	
Cc1cnc(Nc2ccc(NS(C)(=O)=O)cc2)nc1-c1cnn(C(CC#N)C2CCCC2)c1 (racemic)	6.22									pIC50 [23]: > 9.00
CS(=O)(=O)N1CCC(Nc2ncc(C(F)(F)F)c(-c3cnn(C4CCOCC4)c3)n2)CC1	8.49	6.39							130	pIC50 [23]: < 5.00

Further lines, with some results ahead:

pIC50 [1]	pIC50 [2]	pIC50 [4]	pIC50 [5]	solubility [6]	CLint scaled at 1 µM [7]	pIC50 [8]	Papp A→B at 2 h, 50 µM [9]	SMILES	Ratio IC50 [3]	other results
9.38	7.20	7.43	6.80	842 µg/mL (≈ 1820 µM)	< 8.33 mL/min/kg	5.92		CC(C)(O)Cn1cc(-c2nc(NC3CCN(S(C)(=O)=O)CC3)ncc2C(F)(F)F)cn1	150	
8.21	6.76	7.70	6.82	> 400 µg/mL	11.7 mL/min/kg	6.15		CN1CCC(n2cc(-c3nc(NC4CCN(S(C)(=O)=O)CC4)ncc3C(F)(F)F)cn2)CC1	29	
				< 1 µg/mL	8.33 mL/min/kg		19 ×10⁻⁶ cm/s	Cn1cc(S(=O)(=O)N2CCC(Nc3ncc(C(F)(F)F)c(-c4cnn(CC(F)(F)F)c4)n3)CC2)cn1		fraction unbound at 2 h [10]: 0.059
				322 µg/mL (≈ 598 µM)	10 mL/min/kg		5.4 ×10⁻⁶ cm/s	Cn1cnc(S(=O)(=O)N2CCC(Nc3ncc(C(F)(F)F)c(-c4cnn(CC(F)(F)F)c4)n3)CC2)c1		fraction unbound at 2 h [10]: 0.076; AUC at 24 h [11]: 6.95 µM·h; Cmax [12]: 813 nM; bioavailability [13]: 48%; QH [14]: 4.3%; half-life [15]: 3.2 h; Vd [16]: 0.37 L/kg; QH [17]: 12%; half-life [18]: 3.3 h; Vd [19]: 1.4 L/kg; AUC at 24 h [20]: 7.59 µM·h; Cmax [21]: 778 nM; bioavailability [22]: 8%
				5 µg/mL (≈ 10.1 µM)	< 8.33 mL/min/kg		0.6 ×10⁻⁶ cm/s	Cn1cnc(S(=O)(=O)N2CCC(Nc3ncc(C#N)c(-c4cnn(CC(F)(F)F)c4)n3)CC2)c1		
